Results on 67 compounds are retold here after PubChem BioAssay AID179 (DTP/NCI, 2004).

In the test the test system is CEM cells HIV-1 protection, formazan growth assay. The test is described as follows: NCI AIDS Antiviral Assay. As to conditions: for IC50: measured here: growth of uninfected CEM cells. An outline of the steps:
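Protection of CEM cells against HIV-1 was scored from cell growth (soluble formazan) across five concentrations, with parallel uninfected cells. Lack of protection may reflect toxicity.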

In general, EC50 refers to the concentration giving half of the maximal effect. Broadly, the IC50 is the concentration needed to halve the response being measured. A higher IC50 goes with a need for much substance.

Activity calls are given as the source filed them.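 How the source made its calls: active means compounds giving half or more protection of infected cells from virus-caused growth loss, again on retest; inactive means the rest.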 Where a SMILES comes first, the peptide text is derived from it. [ ]: non-standard residue; d: D form. The star is where a group is joined. X4 = CC(C)(C)c1cc(OCC(=O)*)ccc1Sc1c(O)cc(-c2ccccc2)oc1=O; NMeLeu(3R-OH) = CN[C@H](C(=O)O)[C@H](O)C(C)C; NMeL = CN[C@@H](CC(C)C)C(=O)O; NMeV = CN[C@H](C(=O)O)C(C)C; dNMeS = CN[C@H](CO)C(=O)O; Abu = CC[C@H](N)C(=O)O Bounds are passed on as bounds.

Turning to `NS(=O)(=O)c1ccc(NC(=O)c2ccccc2SSc2ccccc2C(=O)Nc2ccc(S(N)(=O)=O)cc2)cc1`, the EC50 was 2.19 µM and the IC50 came to 85.1 µM.
On the same counts, the results for `CC1(C)OCC(C(O)C2OC(C)(C)OC2/C=N\O)O1` (stereo unspecified) are over 912 µM and over 912 µM.
Regarding `Cc1c(C)c(C)c(-n2c(=O)n(C)c(=O)n2-c2cc(C(C)(C)C)cc(C(C)(C)C)c2O)c(C)c1C`, the EC50 was over 200 µM and the IC50 stood at 13.2 µM.
Turning to `C=CC(=O)N1C/C(=C\c2ccc(Cl)cc2)C(=O)/C(=C/c2ccc(Cl)cc2)C1`, the EC50 was over 0.2 µM and the IC50 was 0.0708 µM.
Consider `COC1=CC(=Nc2c(Cl)cc(Cl)cc2OC(=O)c2ccc([N+](=O)[O-])cc2)C=C(OC)C1=O`, for which the outcome was inactive.
As to `CC(C)c1ccc(/C=C/c2cc(C(=O)NNC(=O)NC3CCCCC3)nc(=S)[nH]2)cc1`, the EC50 was over 6.17 µM and the IC50 was over 6.17 µM.
With `N=C(N)SCc1cccc2c(=O)cc(-c3ccccc3)oc12`, the EC50 is over 646 µM and the IC50 was determined as 5.62 µM.
On the same counts, the results for `S=c1nc(C(c2ccccc2)c2ccccc2)[nH][nH]1` are over 135 µM and over 135 µM.
As to `N.N.N.N.N.O=C([O-])CCl.[Co+3].[O-][Cl+3]([O-])([O-])[O-]`, the outcome was inactive.
Turning to `O=c1c(SCc2ccc(F)cc2)c(SCc2ccc(F)cc2)cnn1-c1ccccc1`, the EC50 is over 15.8 µM and the IC50 was over 15.8 µM.
On to `COc1cc(COC(=O)N2CSCC2C(=O)O)c([N+](=O)[O-])cc1OC` (stereo unspecified), for which the EC50 is over 676 µM and the half-maximal inhibitory concentration (IC50) is over 676 µM.
Take `Cc1cn(C2OC(CO[Si](C)(C)C(C)(C)C)/C(=C\C#N)C2O[Si](C)(C)C(C)(C)C)c(=O)[nH]c1=O` (stereo unspecified): the EC50 was over 200 µM and the IC50 was over 200 µM.
In the case of `c1ccc2c(c1)oc1cc3c(cc12)nnc1cccn13`, the EC50 was over 200 µM and the IC50 was over 200 µM.
Consider `CC1(C)C(=O)C2(N)CCC1C2` (stereo unspecified), for which the EC50 was over 200 µM and the IC50 is over 200 µM.
Turning to `O=C(Nc1ccccc1-c1nc2ccccc2[nH]c1=O)c1ccccc1`, the EC50 was over 52.5 µM and the IC50 worked out at 29.5 µM.
On the same counts, the results for `Cc1cccc2c1C(=O)[C@@](C)([C@]1(C)Nc3cccc(C)c3C1=O)N2` are over 200 µM and over 200 µM.
Turning to `COc1ccc(OP2OCC(C)O2)cc1` (stereo unspecified), the EC50 was over 1100 µM and the IC50 was 46.8 µM.
On the same counts, the results for `Cc1cccc(C)c1NC(=O)C(=O)CC(=O)/C=C/c1ccccc1` are over 776 µM and 389 µM.
For `COc1ccc(C2Oc3ccccc3C(=O)C2N)cc1` (stereo unspecified), the EC50 was over 200 µM and the IC50 is 93.3 µM.
On the same counts, the results for `O=C(O)[C@H]1[C@@H](C2CCCCC2)O[C@@H](C2CCCCC2)O[C@H]1C(F)(F)F` are over 200 µM and 191 µM.
On the same counts, the results for `CCCCCCCCCCCCCCCCCc1nc(C#N)c(N)o1` are over 200 µM and 25.1 µM.
On the same counts, the results for `COc1nc2sc3c(c2c(=O)n1CCCSSCCCn1c(OC)nc2sc4c(c2c1=O)CCCC4)CCCC3` are over 100 µM and over 100 µM.
Regarding `NS(=O)(=O)c1cc2c(cc1Cl)NC(/C(=N/NC(=O)c1ccncc1)C1C(=O)NC(=O)NC1=O)=NS2(=O)=O`, the EC50 was over 87.1 µM and the IC50 is over 87.1 µM.
In the case of `O=C1OC(c2ccc(Cl)cc2)(c2ccc(Cl)cc2)c2c1ccc1ccccc21`, the outcome was inactive.
Regarding `Cn1c2c(c3ccccc31)CCN(CCCCN1CCCCC1)C2=O`, the EC50 was over 372 µM and the IC50 came to 58.9 µM.
For the compound `CCOc1ccc(C(=O)CCN2CCC3CCC(C3)C2)cc1` (stereo unspecified), the EC50 was over 200 µM and the IC50 was 13.8 µM.
`COc1ccc(NC(=O)C2=CC(=O)c3ccc(O)cc3C2=O)c(OC)c1`: the EC50 was 75.9 µM and the IC50 was 708 µM.
As to `O=C1CN(C2CCCCC2)CC(=O)N2CCCCN12`, the EC50 is over 200 µM and the IC50 is over 200 µM.
`Cc1csc(=S)n1OC(=O)NC1CCCCC1`: the EC50 was over 912 µM and the IC50 came to 45.7 µM.
On the same counts, the results for `CCOC(=O)COS(=O)(=O)C(F)(F)F` are over 1050 µM and over 1050 µM.
Turning to `CN(C)/C=C/C(=CC=[N+](C)C)/C=C/N(C)C`, the outcome was inactive.
In the case of `CC[C@@H]1NC(=O)[C@H]([C@H](O)C(C)C)N(C)C(=O)[C@H](C(C)C)N(C)C(=O)[C@H](CC(C)C)N(C)C(=O)[C@H](CC(C)C)N(C)C(=O)[C@@H](C)NC(=O)[C@H](CCCCNC(=O)COc2ccc(Sc3c(O)cc(-c4ccccc4)oc3=O)c(C(C)(C)C)c2)NC(=O)[C@H](CC(C)C)N(C)C(=O)[C@H](C(C)C)NC(=O)[C@H](CC(C)C)N(C)C(=O)[C@@H](CO)N(C)C1=O` (cyclo([Abu][dNMeS][NMeL]V[NMeL]K(X4)[dA][NMeL][NMeL][NMeV][NMeLeu(3R-OH)])), the EC50 was over 67.6 µM and the IC50 was 4.57 µM.
Regarding `CC(C)(C)C1C2N1C1(c3ccccc3)OC2(c2ccccc2)c2ccccc21` (stereo unspecified), the EC50 was over 10.2 µM and the IC50 is over 10.2 µM.
In the case of `O=C1CCC2(c3ccc(F)cc3)Nc3cc(Cl)ccc3N12` (stereo unspecified), the result was inactive.
`O=c1[nH]c(=O)n(C2CC(O)C(CO)O2)c2nc3ccc4ccccc4c3nc12` (stereo unspecified): the EC50 was over 100 µM and the IC50 turned out to be 13.2 µM.
As for `CC(C)[Si](OC1=C(C(=O)N(C)c2cccc(Cl)c2)CCCC1)(C(C)C)C(C)C`, the EC50 is over 200 µM and the IC50 amounted to 9.77 µM.
For `O=C(CN1CCOCC1)NC1=Nc2ncccc2C(=O)NN1`, the EC50 is over 200 µM and the IC50 was 115 µM.
For the compound `C=CCOC1=C(OC(C)=O)C(=O)OC1C1COC(C)(C)O1` (stereo unspecified), the EC50 was over 200 µM and the IC50 is 26.3 µM.
On the same counts, the results for `CCOC(=O)NN(C(=O)OCC)c1ccc(N=Nc2ccc(OC)cc2)n1C` are over 200 µM and 26.9 µM.
Turning to `O=C(Nc1ccc(Cl)cc1)OCC12COCN1COC2`, the EC50 is 204 µM and the IC50 worked out at 257 µM.
On the same counts, the results for `NC(=O)CCNC(=O)c1ccc(NC(=O)c2ccccc2SC(=O)CCCC[n+]2ccccc2)cc1` are 18.6 µM and 45.7 µM.
On the same counts, the results for `CCN(CC)CCOC(=O)OCCCCOC(=O)OCCN(CC)CC` are over 200 µM and over 200 µM.
On the same counts, the results for `Cn1nc(-c2ccccc2)c(C(=O)/C=C/c2ccccc2)c(N2CCOCC2)c1=O` are over 79.4 µM and over 79.4 µM.
As for `O=C1CS(=O)(=O)C(c2ccc(Cl)cc2)N1N1C(=O)CS(=O)(=O)C1c1ccc(Cl)cc1` (stereo unspecified), the EC50 was over 200 µM and the IC50 came out at 5.75 µM.
For `COc1c(Sc2c(SCSc3cnc4ccccc4c3Sc3cnc4ccccc4c3OC)cnc3ccccc23)cnc2ccccc12`, the EC50 was over 100 µM and the IC50 was over 100 µM.
As to `O=C(NCc1ccccc1)C1C(=O)C(=O)N(Cc2ccccc2)C1=O` (stereo unspecified), the EC50 is over 269 µM and the IC50 was over 269 µM.
Take `CC1(C)C2CCC1(C)C(OC(=O)/C=C/C(=O)OC1CC3CCC1(C)C3(C)C)C2` (stereo unspecified): the result was inactive.
Consider `CC1=NC2c3c(-c4ccc(Cl)cc4)cn(-c4ccc(C)cc4)c3N=CN2N1` (stereo unspecified), for which the EC50 was over 100 µM and the IC50 is over 100 µM.
Take `O=C(O)C1CSCN1` (stereo unspecified): the EC50 was over 468 µM and the IC50 was over 468 µM.
Take `O=C1NC(=S)N(c2ccccc2)C1=O`: the EC50 is over 200 µM and the IC50 is over 200 µM.
Turning to `COC(=O)c1nn(-c2ccccc2)c(=O)cc1N=[N+]=[N-]`, the EC50 is over 200 µM and the IC50 was determined as 112 µM.
On the same counts, the results for `CCc1ccccc1NC(=O)CC1NC(=O)CS1` (stereo unspecified) are over 339 µM and 214 µM.
Take `CC1(C)OC(=O)C(CC(=O)O)O1` (stereo unspecified): the outcome was inactive.
Consider `COC(=O)C1CC2C(=O)N(c3ccccc3)C(=O)C2c2c1n(C)c1ccccc21` (stereo unspecified), for which the EC50 is over 32.4 µM and the IC50 is over 32.4 µM.
With `O=C1CCC(=O)Nc2ccccc2-c2ccccc2N1`, the result was inactive.
Regarding `O=C1/C(=C/c2cccc(F)c2)Cc2ccccc21`, the EC50 is over 30.2 µM and the IC50 was over 30.2 µM.
Turning to `COC(=O)c1nc(=S)[nH]c(C(=O)OC)c1C(=O)/C=C/c1ccccc1`, the EC50 is over 191 µM and the IC50 stood at 120 µM.
As for `Cc1cc(-c2ccc(N=Nc3ccc4c(S(=O)(=O)[O-])cc(S(=O)(=O)[O-])c(N)c4c3O)c(C)c2)ccc1N=Nc1ccc2c(S(=O)(=O)[O-])cc(S(=O)(=O)[O-])c(N)c2c1O.[Ga]`, the EC50 was 1.12 µM and the IC50 was 38.9 µM.
On the same counts, the results for `CSc1n[n+]2c(s1)SCCC2` are over 759 µM and 58.9 µM.
As for `O=C1C(F)=CC(COC(c2ccccc2)(c2ccccc2)c2ccccc2)OC1n1cc(F)c(=O)[nH]c1=O` (stereo unspecified), the EC50 is over 2 µM and the IC50 is 0.479 µM.
On the same counts, the results for `Nc1ccn([C@H]2CO[C@@H](CO)[C@@H]2O)c(=O)n1` are over 200 µM and over 200 µM.
On to `COc1c2c(cc3c1C(=O)Cc1ccc4c(c1CN(C)CC3)OCO4)OCO2`, for which the EC50 is over 35.5 µM and the IC50 was over 35.5 µM.
Compound `CN(C)CCCSCCOc1nccc(-c2ccc(-c3ccc(-c4ccnc(OCCSCCCN(C)C)n4)s3)s2)n1` returned an EC50 of 1.1 µM and an IC50 of 2.75 µM.
On the same counts, the results for `N#CCCN(CCC#N)c1ccc(/C=C2\N=C(c3cc([N+](=O)[O-])ccc3Cl)N(S(=O)(=O)c3ccccc3)C2=O)cc1` are over 12.3 µM and over 12.3 µM.
`CC1(C)CNC[C@@]2(C)OCCO[C@@]3(C)CNCC(C)(C)[N-]C(=O)[C@@](C)(CNCC(C)(C)[N-]C3=O)OCCO[C@](C)(CNCC(C)(C)[N-]C2=O)C(=O)[N-]1.[Cu+2].[Cu+2]`: the EC50 is over 200 µM and the IC50 is over 200 µM.
With `CC[N+](C)(C)CC(O)(O)C(F)F`, the EC50 is over 200 µM and the IC50 was over 200 µM.
As for `Cc1ccc(S(=O)(=O)c2ccc(C)cc2[N+](=O)[O-])c([N+](=O)[O-])c1`, the EC50 was over 40.7 µM and the IC50 was over 40.7 µM.
